From patent US12286443B2, “Bycyclic JAK inhibitors and uses thereof” (Insilico Medicine IP Limited, priority 2019, dated 2025)
Read-outs that look alike come from different tables or passages of the source.

How the values were obtained:
JAK2 = molecular target: T1, JAK2 (Homo sapiens, UniProt O60674); test: Inhibition of JAK2 kinase, LANCE Ultra TR-FRET assay; type: biochemical; settings: 2x ATP 24 μM, 15 min pre-incubation, 90 min reaction, 23° C.
T1 construct: purchased Invitrogen PV4210
Method: (§1) Exemplary compounds were assayed to determine potency in inhibiting activity of JAK1-3 and TYK2 kinases by determining IC50 values.
(§2) The sources of test materials and equipment are as follows: JAK1 (Invitrogen, Cat. No PV4775), JAK2 (Invitrogen, Cat. No PV4210), JAK3 (Invitrogen, Cat. No PV4080), TYK2 (Invitrogen, Cat. No PR8440C), ATP (Sigma, Cat. No. A7699-1G), DMSO (Sigma, Cat. No. D2650), DTT (Sigma, Cat. No. 43815), 384 wells_compound plate (Greiner, Cat. No. 781280), 384 wells_assay plate (Perkin Elmer, Cat. No. 6007299), LANCE Ultra ULight™-JAK-1 peptide (Perkin Elmer, Cat. No. TRF0121), LANCET™ Eu-W1024 Anti-phosphotyrosine (PT66) (Perkin Elmer, Cat. No. AD0069), LANCET™ Detection Buffer(Perkin Elmer, Cat. No. CR97-100).
(§3) The concentrations of test compounds varied from 100 μM to 1.7 nM with 3-fold dilution, 11 points, in duplicates while the concentrations of the reference compound, Tofacitinib, varied from 1 μM to 0.017 nM with 3-fold dilution, 11 points, in duplicates.
(§4) The assay buffer contained 50 mM HEPES (pH 7.5), 0.01% Brij-35, 10 mM MgCl2, 1 mM EDTA, 2 mM DTT. Incubations were carried out at 23° C.
(§5) Prior to the assay, enzyme, peptide substrate and serially diluted test compounds were pre-incubated together in assay buffer (5 μL) for 15 minutes (peptide substrate concentration: 50 nM; JAK enzyme concentrations: 2 nM JAK1; […]; […] and 4 nM TYK2). And the assay was initiated by the addition of 5 μL assay buffer containing 2× final ATP concentration (these are the 2×ATP concentrations: 76 μM JAK1; 24 μM JAK2; 8 μM JAK3 and 30 μM TYK2). Following the 90-minute incubation, antibody conjugated with Eu is dissolved in detection buffer to add into wells and then incubated for 60 minutes. The 10 μL detection buffer contains EDTA to stop the enzymatic reaction. The plate is analyzed by Perkin Elmer Envision on TR-FRET mode. The high ratio of 665/615 represents no inhibition of kinase reaction while the low ratio of 665/615 represents complete inhibition of kinase reaction.
(§6) Curves are fit by XLFIT5 as inhibition rate % vs. log [compound concentration] using 4 parameters logistic model 205.
(§7) In the table, “A” indicates an IC50 of less than 100 nM, “B” indicates an IC50 range from 100 nM to 500 nM; “C” indicates an IC50 range from 500 nM to 2 μM; and “D” indicates an IC50 greater than 2 μM. Also, “na” indicates data is not available.

JAK3 = molecular target: T2, JAK3 (Homo sapiens, UniProt P52333); test: Inhibition of JAK3 kinase, LANCE Ultra TR-FRET assay; type: biochemical; settings: 2x ATP 8 μM, 15 min pre-incubation, 90 min reaction, 23° C.
T2 construct: purchased Invitrogen PV4080
T2 sequence (P52333 1-1124): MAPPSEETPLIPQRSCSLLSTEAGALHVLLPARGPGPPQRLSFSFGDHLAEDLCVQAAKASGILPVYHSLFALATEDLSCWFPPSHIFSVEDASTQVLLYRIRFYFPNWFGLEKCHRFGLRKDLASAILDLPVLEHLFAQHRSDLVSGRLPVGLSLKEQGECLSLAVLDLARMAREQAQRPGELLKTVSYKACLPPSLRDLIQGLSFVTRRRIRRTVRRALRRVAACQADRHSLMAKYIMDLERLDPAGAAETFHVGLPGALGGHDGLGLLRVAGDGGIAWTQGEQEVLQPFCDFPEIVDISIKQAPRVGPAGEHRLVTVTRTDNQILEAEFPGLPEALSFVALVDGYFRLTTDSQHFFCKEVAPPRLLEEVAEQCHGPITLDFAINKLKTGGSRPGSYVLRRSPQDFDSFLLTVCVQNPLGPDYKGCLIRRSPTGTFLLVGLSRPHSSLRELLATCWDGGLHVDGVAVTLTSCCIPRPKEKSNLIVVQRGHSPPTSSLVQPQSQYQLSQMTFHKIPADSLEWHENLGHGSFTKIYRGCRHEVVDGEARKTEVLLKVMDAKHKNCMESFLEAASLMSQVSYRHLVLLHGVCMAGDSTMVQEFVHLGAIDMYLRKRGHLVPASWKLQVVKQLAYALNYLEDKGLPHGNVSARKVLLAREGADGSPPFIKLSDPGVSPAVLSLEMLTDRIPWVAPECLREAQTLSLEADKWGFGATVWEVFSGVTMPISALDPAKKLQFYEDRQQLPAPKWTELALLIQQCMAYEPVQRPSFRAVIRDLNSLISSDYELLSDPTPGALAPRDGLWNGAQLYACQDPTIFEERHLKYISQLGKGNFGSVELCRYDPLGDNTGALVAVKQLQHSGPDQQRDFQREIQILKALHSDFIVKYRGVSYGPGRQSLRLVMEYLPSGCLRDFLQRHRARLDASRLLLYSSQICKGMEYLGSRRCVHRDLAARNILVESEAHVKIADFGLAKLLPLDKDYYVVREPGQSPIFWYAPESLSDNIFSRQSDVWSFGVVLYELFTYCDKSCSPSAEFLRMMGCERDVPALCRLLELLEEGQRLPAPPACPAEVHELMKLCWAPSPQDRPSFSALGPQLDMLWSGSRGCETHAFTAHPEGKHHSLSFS
Method: as §1, §2, §3, §4, §5, §6, §7

Hut-78 cells = test: Inhibition in Hut-78 cells (IL-2 stimulated, HTRF); type: cell-based; settings: Homo sapiens
Method: Exemplary compounds were assayed to determine potency in inhibiting Hut-78 cells by determining IC50 values.
Hut-78 cells were cultures in IMDM+20% FBS medium. Cells were maintained in log phase before the assay. Cell pellets were collected and resuspended in serum-free and phenol-free RPMI 1640 medium. 40,000 cells/well (10 μL) were seeded in each well of a 384-well plate and incubated with and without compound for 2 hours at 37° C. and 5% C02. IL-2 was added (2 μL, final concentration 100 ng/mL) and the mixture was incubated for 10 min. Cells were lysed by adding 4 μL labeled antibodies and the mixture was incubated overnight. The plate was read using the HTRF protocol on an Envision plate reader. The data was analyzed using XL-fit software (Supplier: ID business solutions Ltd.; Software version: XL fit 5.0). Inhibition %=(Max−Sample value)/(Max−Min)*100.
In the table, “A” indicates an IC50 of less than 0.5 μM, “B” indicates an IC50 range from 0.5 μM to 1 μM; and “C” indicates an IC50 range from 1 μM to 10 μM. Also, “na” indicates data is not available.

JAK1 = molecular target: T3, JAK1 (Homo sapiens, UniProt P23458); test: Inhibition of JAK1 kinase, LANCE Ultra TR-FRET assay; type: biochemical; settings: 2 nM JAK1, 2x ATP 76 μM, 15 min pre-incubation, 90 min reaction, 23° C.
T3 construct: purchased Invitrogen PV4775
Method: as §1, §2, §3, §4, §5, §6, §7

TYK2 = molecular target: T4, TYK2 (Homo sapiens, UniProt P29597); test: Inhibition of TYK2 kinase, LANCE Ultra TR-FRET assay; type: biochemical; settings: 4 nM TYK2, 2x ATP 30 μM, 15 min pre-incubation, 90 min reaction, 23° C., read-out: tyk IC50
T4 construct: purchased Invitrogen PR8440C
Method: as §1, §2, §3, §4, §5, §6, §7

[1] = HuT78, compound 2 hours at 37° C., then IL-2 100 ng/mL 10 min, HTRF, read-out: Hut-78 cells IC50

T1 sequence (O60674 whole entry): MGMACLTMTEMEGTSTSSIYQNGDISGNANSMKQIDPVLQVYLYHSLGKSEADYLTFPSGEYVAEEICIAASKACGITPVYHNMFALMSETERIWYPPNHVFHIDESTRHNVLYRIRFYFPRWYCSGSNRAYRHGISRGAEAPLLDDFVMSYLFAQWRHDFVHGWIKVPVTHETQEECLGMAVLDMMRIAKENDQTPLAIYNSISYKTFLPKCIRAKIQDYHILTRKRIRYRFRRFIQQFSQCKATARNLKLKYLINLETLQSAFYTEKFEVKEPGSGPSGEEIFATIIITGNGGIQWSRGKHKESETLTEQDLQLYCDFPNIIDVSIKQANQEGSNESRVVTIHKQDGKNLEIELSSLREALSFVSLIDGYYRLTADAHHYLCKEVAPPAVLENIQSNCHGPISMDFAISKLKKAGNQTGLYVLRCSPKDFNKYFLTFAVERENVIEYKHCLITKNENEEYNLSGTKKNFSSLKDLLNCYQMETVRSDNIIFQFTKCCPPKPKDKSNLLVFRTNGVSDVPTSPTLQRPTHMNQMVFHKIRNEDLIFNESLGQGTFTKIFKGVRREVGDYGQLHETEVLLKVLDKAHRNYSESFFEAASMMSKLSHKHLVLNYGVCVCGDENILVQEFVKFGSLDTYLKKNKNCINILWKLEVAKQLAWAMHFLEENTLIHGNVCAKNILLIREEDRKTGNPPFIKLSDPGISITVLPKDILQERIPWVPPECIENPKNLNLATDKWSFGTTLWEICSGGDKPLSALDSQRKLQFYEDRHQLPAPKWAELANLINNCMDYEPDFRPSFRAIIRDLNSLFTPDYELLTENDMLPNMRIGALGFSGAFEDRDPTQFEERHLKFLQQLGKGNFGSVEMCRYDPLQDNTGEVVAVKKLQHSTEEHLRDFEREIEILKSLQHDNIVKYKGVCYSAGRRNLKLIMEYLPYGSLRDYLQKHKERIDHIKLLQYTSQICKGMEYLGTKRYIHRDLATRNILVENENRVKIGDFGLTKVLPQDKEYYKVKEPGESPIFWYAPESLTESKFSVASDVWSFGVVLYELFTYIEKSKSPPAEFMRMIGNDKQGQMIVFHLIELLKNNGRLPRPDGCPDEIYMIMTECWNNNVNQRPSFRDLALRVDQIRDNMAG
T3 sequence (P23458 whole entry): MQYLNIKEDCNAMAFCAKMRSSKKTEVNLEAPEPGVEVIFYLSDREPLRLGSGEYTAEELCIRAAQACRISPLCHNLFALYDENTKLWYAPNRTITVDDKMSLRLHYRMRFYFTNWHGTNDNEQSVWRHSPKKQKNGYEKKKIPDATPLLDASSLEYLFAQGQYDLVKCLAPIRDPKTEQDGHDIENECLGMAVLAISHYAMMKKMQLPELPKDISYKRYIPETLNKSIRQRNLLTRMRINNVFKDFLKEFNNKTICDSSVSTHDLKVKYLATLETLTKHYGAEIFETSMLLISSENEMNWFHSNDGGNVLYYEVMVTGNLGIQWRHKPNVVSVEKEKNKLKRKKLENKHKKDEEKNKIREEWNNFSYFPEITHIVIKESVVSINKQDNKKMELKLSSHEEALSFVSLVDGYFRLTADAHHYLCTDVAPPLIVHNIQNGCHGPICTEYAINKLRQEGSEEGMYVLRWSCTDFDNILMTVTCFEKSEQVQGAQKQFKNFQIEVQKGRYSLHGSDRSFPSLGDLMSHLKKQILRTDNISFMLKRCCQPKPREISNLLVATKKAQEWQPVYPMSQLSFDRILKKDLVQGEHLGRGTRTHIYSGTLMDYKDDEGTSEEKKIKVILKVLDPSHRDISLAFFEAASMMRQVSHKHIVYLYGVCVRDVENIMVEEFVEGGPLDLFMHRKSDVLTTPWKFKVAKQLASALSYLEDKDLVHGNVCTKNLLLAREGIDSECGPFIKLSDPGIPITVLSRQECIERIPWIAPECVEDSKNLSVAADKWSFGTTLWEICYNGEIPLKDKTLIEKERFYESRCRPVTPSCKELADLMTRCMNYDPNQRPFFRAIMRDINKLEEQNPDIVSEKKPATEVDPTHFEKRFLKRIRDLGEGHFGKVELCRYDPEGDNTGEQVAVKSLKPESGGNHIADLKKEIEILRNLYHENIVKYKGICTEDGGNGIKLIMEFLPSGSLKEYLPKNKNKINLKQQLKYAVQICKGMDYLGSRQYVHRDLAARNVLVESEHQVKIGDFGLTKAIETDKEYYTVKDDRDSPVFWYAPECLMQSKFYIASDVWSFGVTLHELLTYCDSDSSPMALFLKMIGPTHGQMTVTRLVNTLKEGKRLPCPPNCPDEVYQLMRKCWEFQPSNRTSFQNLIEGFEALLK
T4 sequence (P29597 whole entry): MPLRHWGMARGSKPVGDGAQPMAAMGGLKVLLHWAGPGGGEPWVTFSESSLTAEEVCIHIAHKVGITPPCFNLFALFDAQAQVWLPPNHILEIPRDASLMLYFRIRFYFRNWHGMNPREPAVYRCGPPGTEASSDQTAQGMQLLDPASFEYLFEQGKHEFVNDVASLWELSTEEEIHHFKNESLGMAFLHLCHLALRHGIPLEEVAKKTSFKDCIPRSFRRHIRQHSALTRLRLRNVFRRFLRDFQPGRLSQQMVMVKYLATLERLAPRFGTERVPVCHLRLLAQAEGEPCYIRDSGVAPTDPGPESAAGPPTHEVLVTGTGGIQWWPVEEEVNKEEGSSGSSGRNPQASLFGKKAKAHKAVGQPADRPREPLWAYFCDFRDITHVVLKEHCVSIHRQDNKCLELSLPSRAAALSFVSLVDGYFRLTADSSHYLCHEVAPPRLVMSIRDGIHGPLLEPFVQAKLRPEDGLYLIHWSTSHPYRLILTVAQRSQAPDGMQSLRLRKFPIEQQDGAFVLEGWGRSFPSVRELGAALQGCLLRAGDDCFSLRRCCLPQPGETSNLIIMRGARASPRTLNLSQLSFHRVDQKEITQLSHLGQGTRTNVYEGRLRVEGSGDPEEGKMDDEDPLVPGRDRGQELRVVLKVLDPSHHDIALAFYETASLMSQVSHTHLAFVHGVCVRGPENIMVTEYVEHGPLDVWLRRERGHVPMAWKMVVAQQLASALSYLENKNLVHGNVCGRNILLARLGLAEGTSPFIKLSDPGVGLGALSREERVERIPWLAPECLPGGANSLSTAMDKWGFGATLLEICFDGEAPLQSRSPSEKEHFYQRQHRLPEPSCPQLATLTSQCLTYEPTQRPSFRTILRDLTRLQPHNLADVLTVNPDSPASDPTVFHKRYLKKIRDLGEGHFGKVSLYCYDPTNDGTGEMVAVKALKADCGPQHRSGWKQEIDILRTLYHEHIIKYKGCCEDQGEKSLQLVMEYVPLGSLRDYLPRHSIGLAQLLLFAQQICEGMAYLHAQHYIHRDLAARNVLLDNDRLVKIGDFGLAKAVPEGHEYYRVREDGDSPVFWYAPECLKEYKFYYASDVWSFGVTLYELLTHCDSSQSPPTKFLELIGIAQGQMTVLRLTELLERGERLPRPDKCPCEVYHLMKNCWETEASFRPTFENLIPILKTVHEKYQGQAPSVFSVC

SMILES | IC50 (JAK2) | IC50 (JAK3) | IC50 (Hut-78 cells; [1]) | IC50 (JAK1) | IC50 (TYK2) | IC50 (Hut-78 cells; HuT78, read-out: Hut-78 cells IC50 (μM))
O=C(NCCC(F)(F)F)c1n[nH]c2c1CN(c1ncnc3[nH]ccc13)CC2 [Compound 109] | 100 to 500 nM | < 100 nM | 1 to 10 µM | < 100 nM | 500 to 2000 nM | 
COCCn1nc(C(=O)NCCC(F)(F)F)c2c1CCN(c1ncnc3[nH]ccc13)C2 [Compound 104] | 100 to 500 nM | < 100 nM | 0.5 to 1 µM | 100 to 500 nM | > 2000 nM | 
O=C(NCCC(F)(F)F)c1nn(C(=O)CCc2ccccc2)c2c1CN(c1ncnc3[nH]ccc13)CC2 [Compound 103] | 100 to 500 nM | < 100 nM | 1 to 10 µM | 100 to 500 nM | > 2000 nM | 
O=C(NCCC(F)(F)F)c1nn(Cc2ccncc2)c2c1CN(c1ncnc3[nH]ccc13)CC2 [Compound 105] | 100 to 500 nM | < 100 nM | 0.5 to 1 µM | 100 to 500 nM | > 2000 nM | 
O=C(NCCC(F)(F)F)c1onc2c1CN(c1ncnc3[nH]ccc13)CC21CC1 [Compound 193] | 100 to 500 nM | < 100 nM | 0.5 to 1 µM | 100 to 500 nM | 500 to 2000 nM | 
O=C(c1noc2c1CN(c1ncnc3[nH]ccc13)CC2)N1CC(C(F)(F)F)C1 [Compound 194] | < 100 nM | < 100 nM | < 0.5 µM | < 100 nM | 100 to 500 nM | 
O=C(NC(CO)CC(F)(F)F)c1noc2c1CN(c1ncnc3[nH]ccc13)CC2 (centres unmarked) [Compound 186] | < 100 nM | < 100 nM | < 0.5 µM | < 100 nM | 100 to 500 nM | 
CCS(=O)(=O)n1nc(C(=O)NCCC(F)(F)F)c2c1CCN(c1ncnc3[nH]ccc13)C2 [Compound 102] | 100 to 500 nM | < 100 nM | 1 to 10 µM | 500 to 2000 nM | > 2000 nM | 
N#Cc1cn(C(=O)NCCC(F)(F)F)c2c1CCN(c1ncnc3[nH]ccc13)C2 [Compound 143] | 100 to 500 nM | < 100 nM | 1 to 10 µM | 100 to 500 nM | 500 to 2000 nM | 
O=C(NC1CC1C(F)(F)F)c1noc2c1CN(c1ncnc3[nH]ccc13)CC2 (centres unmarked) [Compound 182] | 100 to 500 nM | < 100 nM | < 0.5 µM | < 100 nM | 500 to 2000 nM | 
O=C(NCC(F)(F)F)c1noc2c1CN(c1ncnc3[nH]ccc13)CC2 [Compound 178] | < 100 nM | < 100 nM |  | < 100 nM | 500 to 2000 nM | 0.5 to 1 µM
O=C(NCCC(F)(F)F)c1nn(C2CCC2)c2c1CN(c1ncnc3[nH]ccc13)CC2 [Compound 117] | 500 to 2000 nM | < 100 nM |  | 100 to 500 nM | > 2000 nM | 
O=C(NCCN1CCOCC1)c1noc2c1CN(c1ncnc3[nH]ccc13)CC2 [Compound 162] | > 2000 nM | 500 to 2000 nM |  | > 2000 nM | > 2000 nM | 
O=C(NCCC(F)(F)F)c1nn(C2CCNCC2)c2c1CN(c1ncnc3[nH]ccc13)CC2 [Compound 101] | > 2000 nM | 500 to 2000 nM |  | > 2000 nM | > 2000 nM | 

Now from value to compound, other results behind:

IC50 (JAK2) | IC50 (JAK3) | IC50 (Hut-78 cells; [1]) | IC50 (JAK1) | IC50 (TYK2) | SMILES | IC50 (Hut-78 cells; HuT78, read-out: Hut-78 cells IC50 (μM))
< 100 nM | < 100 nM | 0.5 to 1 µM | < 100 nM | 100 to 500 nM | O=C(NCCC(F)(F)F)c1noc2c1CN(c1ncnc3[nH]ccc13)CC2 [Compound 110] | 
< 100 nM | < 100 nM | < 0.5 µM | < 100 nM | 100 to 500 nM | O=C(NCC(O)C(F)(F)F)c1noc2c1CN(c1ncnc3[nH]ccc13)CC2 (centres unmarked) [Compound 190] | 
100 to 500 nM | < 100 nM | 1 to 10 µM | 100 to 500 nM | > 2000 nM | O=C(NCC1CC1(F)F)c1noc2c1CN(c1ncnc3[nH]ccc13)CC2 (centres unmarked) [Compound 179] | 
100 to 500 nM | < 100 nM | < 0.5 µM | < 100 nM | > 2000 nM | O=C(NC1CC(O)(C(F)(F)F)C1)c1noc2c1CN(c1ncnc3[nH]ccc13)CC2 (centres unmarked) [Compound 201] | 
< 100 nM | < 100 nM | < 0.5 µM | < 100 nM | 500 to 2000 nM | O=C(N[C@H]1C[C@@](O)(C(F)(F)F)C1)c1noc2c1CN(c1ncnc3[nH]ccc13)CC2 [Compound 202] | 
100 to 500 nM | < 100 nM | < 0.5 µM | < 100 nM | 500 to 2000 nM | CC1(CNC(=O)c2noc3c2CN(c2ncnc4[nH]ccc24)CC3)CC(F)(F)C1 [Compound 199] | 
100 to 500 nM | < 100 nM |  | 100 to 500 nM | > 2000 nM | O=C(NCCCC(F)(F)F)c1noc2c1CN(c1ncnc3[nH]ccc13)CC2 [Compound 154] | 
100 to 500 nM | < 100 nM | < 0.5 µM | < 100 nM | > 2000 nM | O=C(NCC1CC(F)(F)C1)c1noc2c1CN(c1ncnc3[nH]ccc13)CC2 [Compound 198] | 
500 to 2000 nM | 100 to 500 nM |  | 100 to 500 nM | > 2000 nM | O=C(NCCC1COC1)c1noc2c1CN(c1ncnc3[nH]ccc13)CC2 [Compound 146] | 
